Experimental data taken from patent US7507803B2, “Optimized multi-epitope constructs and uses thereof” (priority 2002, dated 2009).
Where two headings read alike, the source gives them in different places. Ends that are not written are not given here.

Legend:
[1] = tested on: HLA supertype alleles; assay type: binding, human
[2] = tested on: H2^bxd mice; assay: CTL response after peptide/IFA immunization, in situ ELISA; assay type: in vivo, mouse; conditions: peptide/IFA immunization of H2^bxd mice
[3] = target: HLA-A*2402 (Homo sapiens, UniProt P04439, D101N/D140Y/D185E/E176V/E190D/F33S/G103R/G107R/I119L/I121M/I306V/K335N/L105A/L180Q/L300P/N151K/N90K/Q86E/Q94H/R106L/R138H/R89G/T104I/T345S/V100E/W191G/Y123F); assay: HLA class I peptide binding assay (purified HLA, IC50)
[4] = tested on: HLA-A*0201/K^b transgenic mice; assay: CTL response after DNA immunization, 51Cr release assay (lytic units); assay type: in vivo, mouse
Excerpt: However, the magnitude and the frequency of the responses varied greatly between epitopes.
This assay to measure CTL activity is well known in the art. […] The LU calculation allows quantifying responses and thus readily comparing different experimental values.

[5] = tested on: H2^bxd mice; assay: HTL responses, primary IFN-γ ELISPOT on CD4 T cells; assay type: in vivo, mouse
Description: H2^bxd mice were immunized intramuscularly with 100 μg of a vaccine HBV HTL epigene construct or the individual peptides emulsified in CFA. Eleven days after the immunization CD4 T cells were purified from splenocytes and HTL responses were measured using a primary IFN-γ ELISPOT assay.
Eleven days after immunization, no booster immunizations were administered, CD4 T cells were purified from the spleen, and peptide specific HTL responses were measured in a primary γ-IFN ELISPOT assay.
The immunogenicity of the HTL epitopes was also characterized using H2^bxd mice.
This construct was tested for immunogenicity in H2^bxd mice (FIG. 28B), measuring IFN-γ production by CD4+ T-lymphocytes using an ELISPOT assay.

[6] = A1 or A24 supertype, three related alleles
[7] = A2, A3 or B7 supertype, five most common members

CC(C)C[C@H](NC(=O)[C@H](CC(N)=O)NC(=O)[C@@H]1CCCN1C(=O)[C@@H](NC(=O)[C@H](C)NC(=O)[C@H](Cc1ccccc1)NC(=O)[C@H](CCCCN)NC(=O)[C@@H]1CCCN1C(=O)[C@H](Cc1c[nH]c2ccccc12)NC(=O)[C@@H](N)CO)C(C)C)C(=O)O [pol 392]
XRN (number of supertype alleles bound ≦500 nM) [1, 6]: 2
Murine Immunogenicity (SU) [2]: 261.0 SU

CC[C@H](C)[C@H](NC(=O)[C@@H]1CCCN1C(=O)[C@H](CC(C)C)NC(=O)[C@@H](N)CC(C)C)C(=O)N[C@@H](Cc1ccccc1)C(=O)N[C@@H](Cc1ccccc1)C(=O)N[C@@H](CS)C(=O)N[C@@H](CC(C)C)C(=O)N[C@@H](Cc1c[nH]c2ccccc12)C(=O)N[C@H](C(=O)O)C(C)C [env 378]
XRN (number of supertype alleles bound ≦500 nM) [1, 7]: 1

LWFHISCLTF [core 101]
IC50 [3]: 6.7 nM
XRN (number of supertype alleles bound ≦500 nM) [1, 6]: 3
Murine Immunogenicity (SU) [2]: 0.0 SU

CSCC[C@H](NC(=O)[C@H](CC(C)C)NC(=O)[C@H](C)NC(=O)[C@@H]1CCCN1C(=O)[C@H](Cc1ccc(O)cc1)NC(=O)CN)C(=O)N1CCC[C@H]1C(=O)N[C@@H](CC(C)C)C(=O)N[C@@H](Cc1ccc(O)cc1)C(=O)O [pol 639]
IC50 [3]: 280 nM
XRN (number of supertype alleles bound ≦500 nM) [1, 6]: 2

CC[C@H](C)[C@H](NC(=O)[C@H](CS)NC(=O)[C@H](C)NC(=O)[C@H](Cc1ccc(O)cc1)NC(=O)[C@H](CC(C)C)NC(=O)[C@@H]1CCCN1C(=O)[C@H](CCSC)NC(=O)[C@H](CC(C)C)NC(=O)[C@H](C)N)C(=O)O [pol 642]
XRN (number of supertype alleles bound ≦500 nM) [1]: 4

CC[C@H](C)[C@H](NC(=O)[C@@H](NC(=O)[C@H](Cc1ccccc1)NC(=O)[C@H](CCCNC(=N)N)NC(=O)[C@H](CCCNC(=N)N)NC(=O)[C@H](CC(C)C)NC(=O)[C@H](CS)NC(=O)[C@H](CCSC)NC(=O)[C@H](Cc1c[nH]c2ccccc12)NC(=O)[C@@H](N)CCCNC(=N)N)[C@@H](C)CC)C(=O)O [env 236]
XRN (number of supertype alleles bound ≦500 nM) [1, 6]: 3
Murine Immunogenicity (SU) [2]: 339.6 SU

RFSWLSLLVPF [env 332]
IC50 [3]: 12 nM
XRN (number of supertype alleles bound ≦500 nM) [1, 6]: 2
Murine Immunogenicity (SU) [2]: 0.0 SU

N[C@@H](CO)C(=O)N[C@@H](Cc1ccccc1)C(=O)N[C@@H](CS)C(=O)NCC(=O)N[C@@H](CO)C(=O)N1CCC[C@H]1C(=O)N[C@@H](Cc1ccc(O)cc1)C(=O)N[C@@H](CO)C(=O)N[C@@H](Cc1c[nH]c2ccccc12)C(=O)O [pol 167]
IC50 [3]: 146 nM
XRN (number of supertype alleles bound ≦500 nM) [1, 6]: 3

CSCC[C@H](NC(=O)[C@H](CCSC)NC(=O)[C@@H](N)Cc1c[nH]c2ccccc12)C(=O)N[C@@H](Cc1c[nH]c2ccccc12)C(=O)N[C@@H](Cc1ccc(O)cc1)C(=O)N[C@@H](Cc1c[nH]c2ccccc12)C(=O)NCC(=O)N1CCC[C@H]1C(=O)N[C@@H](CO)C(=O)N[C@@H](CC(C)C)C(=O)N[C@@H](Cc1ccc(O)cc1)C(=O)O [env 359]
XRN (number of supertype alleles bound ≦500 nM) [1, 6]: 3

CC(C)C[C@H](NC(=O)[C@H](CO)NC(=O)[C@@H](N)CC(C)C)C(=O)N[C@@H](CC(=O)O)C(=O)N[C@H](C(=O)N[C@@H](CO)C(=O)N[C@@H](C)C(=O)N[C@@H](C)C(=O)N[C@@H](Cc1ccccc1)C(=O)N[C@@H](Cc1ccc(O)cc1)C(=O)O)C(C)C [pol 415]
XRN (number of supertype alleles bound ≦500 nM) [1, 6]: 3

CC(C)C[C@H](NC(=O)[C@H](CCCNC(=N)N)NC(=O)[C@H](C)NC(=O)[C@@H](NC(=O)[C@H](Cc1ccc(O)cc1)NC(=O)[C@H](CCCNC(=N)N)NC(=O)[C@H](CO)NC(=O)[C@H](CC(C)C)NC(=O)CN)C(C)C)C(=O)O [pol 455]
XRN (number of supertype alleles bound ≦500 nM) [1, 7]: 3

CC[C@H](C)[C@H](NC(=O)CNC(=O)[C@H](CC(C)C)NC(=O)[C@H](CO)NC(=O)[C@H](CC(C)C)NC(=O)[C@H](CC(C)C)NC(=O)[C@@H](N)Cc1ccccc1)C(=O)N[C@@H](Cc1c[nH]cn1)C(=O)N[C@@H](CC(C)C)C(=O)O [pol 562]
XRN (number of supertype alleles bound ≦500 nM) [1, 7]: 3

CC(C)C[C@H](NC(=O)[C@H](CS)NC(=O)[C@H](Cc1c[nH]cn1)NC(=O)[C@@H]1CCCN1C(=O)[C@H](Cc1ccccc1)NC(=O)[C@H](C)N)C(=O)N[C@@H](C)C(=O)N[C@@H](Cc1ccccc1)C(=O)O [pol 529]
XRN (number of supertype alleles bound ≦500 nM) [1, 6]: 3

CC(C)[C@H](NC(=O)CNC(=O)CNC(=O)[C@@H](NC(=O)[C@@H](NC(=O)[C@H](CCCNC(=N)N)NC(=O)[C@H](C)NC(=O)[C@@H]1CCCN1C(=O)[C@@H](N)[C@@H](C)O)C(C)C)[C@@H](C)O)C(=O)N[C@@H](Cc1ccccc1)C(=O)O [pol 354]
XRN (number of supertype alleles bound ≦500 nM) [1, 7]: 2

C[C@H](N)C(=O)N[C@@H](CO)C(=O)N[C@@H](Cc1ccccc1)C(=O)N[C@@H](CS)C(=O)NCC(=O)N[C@@H](CO)C(=O)N1CCC[C@H]1C(=O)N[C@@H](Cc1ccc(O)cc1)C(=O)O [pol 166]
XRN (number of supertype alleles bound ≦500 nM) [1, 6]: 3

CC(C)C[C@H](NC(=O)[C@H](C)NC(=O)[C@H](CO)NC(=O)[C@@H]1CCCN1C(=O)[C@@H](NC(=O)[C@H](Cc1ccc(O)cc1)NC(=O)[C@@H](NC(=O)[C@H](Cc1ccccc1)NC(=O)[C@H](CO)NC(=O)[C@@H](NC(=O)CN)[C@@H](C)O)C(C)C)C(C)C)C(=O)N[C@@H](CC(N)=O)C(=O)N1CCC[C@H]1C(=O)N[C@@H](C)C(=O)N[C@@H](CC(=O)O)C(=O)O [pol 774]
HIV-FT Immunogenicity magnitude ([4]; 100 μg HIV-FT plasmid DNA i.m., CTL response to the epitope): 0 LU
Frequency (fraction of independent cultures yielding positive responses) ([4]; CTL response to the epitope after immunization with epigene construct HIV 1 (20 mer)): 0/8
HIV-FT Immunogenicity frequency (number cultures >2LU/total tested) ([4]; HIV-FT DNA): 0/8
HIV-FT Immunogenicity frequency of positive cultures ([4]; HIV-FT DNA, positive = >2LU): 0%
Frequency (fraction of independent cultures yielding positive responses) ([4]; epigene construct HIV 1.1 (10 mer)): 0/4

CC(C)C[C@H](NC(=O)[C@H](C)NC(=O)[C@H](CO)NC(=O)[C@H](C)NC(=O)[C@@H](NC(=O)[C@H](CC(=O)O)NC(=O)[C@H](CC(C)C)NC(=O)[C@H](CC(C)C)NC(=O)[C@@H](N)CC(=O)O)[C@@H](C)O)C(=O)N[C@@H](Cc1ccc(O)cc1)C(=O)O [core 419]
XRN (number of supertype alleles bound ≦500 nM) [1, 6]: 3

B1: HBV HTL: epigene construct encoding 16 HBV HTL epitopes with GPGPG spacers, SEQ ID NO: 73/74 (nucleic acid)
DNA: ATGGGAACTTCTTTTGTGTATGTCCCTTCCGCTCTGAACCCAGCAGACGGACCCGGGCCTGGCCTGTGCCAGGTCTTCGCCGACGCAACTCCCACAGGGTGGGGGCTGGGGCCAGGACCAGGCAGGCACTACCTGCATACTCTGTGGAAGGCAGGAATCCTCTATAAAGGGCCCGGCCCAGGCCCTCACCACACCGCCCTGAGGCAGGCCATCCTGTGCTGGGGGGAGCTCATGACCCTGGCCGGACCTGGACCCGGGGAGAGCAGACTGGTGGTGGATTTCAGCCAATTCAGCAGAGGAAACGGACCCGGCCCTGGGCCTTTTCTGCTGGCTCAGTTTACATCTGCTATTTGTTCTGTGGTCGGCCCCGGGCCCGGACTCGTGCCTTTCGTGCAGTGGTTCGTGGGACTGTCCCCTACAGTCGGGCCCGGCCCAGGGCTGCATCTGTACTCCCACCCAATCATCCTCGGCTTCCGCAAGATTGGACCCGGCCCAGGCTCCAGCAATCTCTCCTGGCTCTCTCTGGACGTGTCTGCCGCCTTTGGCCCTGGACCAGGCCTGCAAAGCCTGACTAATCTGCTCAGCAGCAACCTGTCCTGGCTGGGACCTGGCCCAGGGGCTGGCTTCTTTCTGCTCACCCGGATTCTCACAATTCCCCAGTCCGGACCAGGACCAGGAGTCAGTTTCGGGGTGTGGATCAGGACCCCTCCTGCTTATAGACCACCCAATGCTCCAATCGGCCCCGGCCCTGGCGTCGGGCCACTGACCGTGAATGAGAAGCGCCGGCTGAAGCTGATCGGCCCTGGCCCTGGCAAGCAGTGCTTTCGCAAACTGCCCGTGAACAGACCTATTGATTGGGGCCCCGGCCCTGGAGCAGCCAACTGGATTCTCAGGGGAACAAGCTTCGTCTACGTGCCCGGGCCCGGACCAGGGAAGCAGGCTTTTACCTTCTCTCCCACTTACAAGGCCTTCCTCTGTGGGCCAGGCCCCGGCGCCAAGTTTGTGGCAGCATGGACCCTCAAAGCCGCTGCCTGA
modifications: Hepatitis B virus
Epitopes with responses as vigorous as those induced by peptides emulsified in CFA (%) ([5]; 100 μg i.m., IFN-γ production by CD4+ T-lymphocytes): 50%
Epitopes that failed to induce a response ([5]; mouse, in vivo): two
Epitopes with responses as vigorous as those induced by peptides emulsified in CFA (fraction of epitopes tested) ([5]; mouse, in vivo): 6/12
